Laboratory results as given in BindingDB's records for doi:10.1074/jbc.M113.487736 (Universität Duisburg-Essen, 2014).

Legend:
[1] = target: T1, NAD-dependent protein deacetylase sirtuin-2 (Homo sapiens, UniProt Q8IXJ6); test: Fluorescence-Based Deacetylation Assay; conditions: pH 8; 37 °C
T1 sequence (Q8IXJ6 whole entry): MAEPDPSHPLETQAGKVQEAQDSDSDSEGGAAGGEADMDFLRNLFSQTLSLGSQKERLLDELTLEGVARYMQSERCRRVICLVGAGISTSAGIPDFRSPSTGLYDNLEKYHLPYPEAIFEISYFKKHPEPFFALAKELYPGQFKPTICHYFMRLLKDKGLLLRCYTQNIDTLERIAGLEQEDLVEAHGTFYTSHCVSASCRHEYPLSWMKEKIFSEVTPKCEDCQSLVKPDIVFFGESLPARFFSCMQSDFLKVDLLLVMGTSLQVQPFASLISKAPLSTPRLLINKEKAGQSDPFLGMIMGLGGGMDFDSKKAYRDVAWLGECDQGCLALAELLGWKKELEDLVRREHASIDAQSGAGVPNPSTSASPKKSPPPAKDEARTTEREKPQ
Method: (§1) Deacetylation assays using Boc(Ac)Lys-7-amino-4-methyl-coumarin (MAL; Bachem, Bubendorf, Switzerland) as a substrate were performed in a volume of 20 μl in 384-well low volume plates (Eppendorf) in a reaction buffer containing 25 mM Tris-HCl (pH 8.0), 137 mM NaCl, 1 mM MgCl2, 2.7 mM KCl, 1 mg/ml BSA, and 1mM DTT. Enzymes were added at different concentrations to wells in a volume of 10 μl and were preincubated with inhibitors (volume 1 μl, diluted in dimethyl sulfoxide) or with dimethyl sulfoxide as a control for 10 min at room temperature. Subsequently, 10 μl 2× concentrated substrate solution containing 200 μM MAL and 2 mM NAD+ was added to initiate the reaction, which was incubated at 37 °C for 4 h. This allowed for ~50% deacetylation of MAL. After incubation, 20 μl of trypsin solution (0.5 mg/ml) was added, and the trypsin cleavage reaction was allowed to proceed at 37 °C for 1 h. Fluorescence readings were obtained using a fluorescence reader(GENiosPro TECAN), with the excitation wavelength set to 360 nm and the emission set to 465 nm.

[2] = target: T2, NAD-dependent protein deacetylase sirtuin-1 (Homo sapiens, UniProt Q96EB6); test: Fluorescence-Based Deacetylation Assay; conditions: pH 8; 37 °C
T2 sequence (Q96EB6 whole entry): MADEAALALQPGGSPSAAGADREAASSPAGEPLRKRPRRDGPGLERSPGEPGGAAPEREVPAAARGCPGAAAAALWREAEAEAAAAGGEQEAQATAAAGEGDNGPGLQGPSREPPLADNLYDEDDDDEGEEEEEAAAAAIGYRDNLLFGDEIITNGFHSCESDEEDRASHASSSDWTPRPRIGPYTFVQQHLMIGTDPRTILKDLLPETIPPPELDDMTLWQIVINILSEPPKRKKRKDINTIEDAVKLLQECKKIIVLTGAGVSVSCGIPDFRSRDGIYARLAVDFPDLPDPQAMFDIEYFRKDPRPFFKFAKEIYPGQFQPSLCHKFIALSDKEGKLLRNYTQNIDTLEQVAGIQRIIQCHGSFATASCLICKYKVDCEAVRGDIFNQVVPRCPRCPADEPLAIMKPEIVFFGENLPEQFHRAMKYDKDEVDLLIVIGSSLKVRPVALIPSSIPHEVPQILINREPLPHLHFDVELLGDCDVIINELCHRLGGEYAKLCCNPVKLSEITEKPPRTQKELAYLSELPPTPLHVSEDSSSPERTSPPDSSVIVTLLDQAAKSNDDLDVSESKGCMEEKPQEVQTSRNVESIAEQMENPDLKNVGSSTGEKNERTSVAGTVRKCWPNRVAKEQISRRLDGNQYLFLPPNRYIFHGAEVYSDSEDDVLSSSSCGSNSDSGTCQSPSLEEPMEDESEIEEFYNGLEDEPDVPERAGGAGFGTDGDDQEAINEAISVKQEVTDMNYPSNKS
Method: as §1

**Q.** Which results are given for NC(=O)c1ccc2c(c1)C1C3CCC(C3)C1C(c1ccccc1)N2 (stereo not given) [AEM1]?
**A.** IC50 [1]: 18.5 µM; IC50 [2]: 118 µM

**Q.** O=C(NCc1cccnc1)c1ccc2c(c1)C1C3CCC(C3)C1C(c1ccccc1)N2 (stereo not given) [AEM2] was tested. Which IC50 [1] did it give?
**A.** 3.8 µM

**Q.** And the IC50 [2]?
**A.** > 100 µM

**Q.** How did the IC50 [1] turn out when COCCCNC(=O)c1ccc2c(c1)C1C3CCC(C3)C1C(c1ccccc1)N2 (stereo not given) [AEM1 derivative, 1] was run?
**A.** 18.7 µM
